The text below walks through data of US9440978B2, “Imidazolo-, oxazolo-, and thiazolopyrimidine modulators of TRPV1” (Janssen Pharmaceutica NV, priority 2007, dated 2016).

Where a name gives a salt, the structure may show the parent alone.

One test addresses T1, rat TRPV1 (Rattus norvegicus, UniProt O35433).
T1 construct: expressed in transfected cells; host or cells: HEK293
In words: Block of capsaicin-induced Ca2+ influx, rat assay (rTRPV1/HEK293, FLIPR). The test is classed as cell-based. To be noted: HEK293 cells transfected with rat TRPV1; capsaicin challenge; mean; > value = solubility limit in assay medium; read-out: Rat IC50. The method, then: (§1) HEK293 cells were transfected with human TRPV1 cloned in pcDNA3.1zeo(+) using the Effectene non-liposomal lipid based transfection kit (Qiagen) (hTRPV1/HEK293). hTRPV1/HEK293 cells were routinely grown as monolayers under selection in zeocin (200 μg/mL; Invitrogen) in Dulbecco's Modified Eagle Medium (DMEM, Gibco BRL) supplemented with 10% fetal bovine serum, and penicillin/streptomycin (50 units/mL) in 5% CO2 at 37° C. Cells were passaged frequently, every 3-5 days, to avoid overgrowth, depletion of essential medium components, or acidic medium exposure. Cells were passaged using a brief wash in 0.05% trypsin with 1 mM EDTA, followed by dissociation in divalent-free phosphate-buffered saline (Hyclone #SH30028.02). […] The assay buffer was composed of 130 mM NaCl, 2 mM KCl, 2 mM MgCl2, 10 mM HEPES, 5 mM glucose, and either 2 mM or 20 μM CaCl2. On the day of the experiment, the culture medium was replaced with 2 mM calcium assay buffer using an automated plate washer (ELx405; Biotek, VT). […] After loading the cells, the dye solution was replaced with 50 μL/well of 20 μM calcium assay buffer using the ELx405 plate washer. Test compounds (50 μL/well) were added to the plate and incubated for 30 min. Intracellular Ca^2+ levels were subsequently assayed using a Fluorometric Imaging Plate Reader (FLIPR™ instrument, Molecular Devices, CA) to simultaneously monitor Fluo-3 fluorescence in all wells (λexcitation=488 nm, λemission=540 nm) during challenge with agonist (capsaicin). The IC50 values were determined. […] The contents of the wells were mixed 3 times (40 μL mix volume) immediately after the additions were made. Concentration-dependence of block was determined by exposing each well of cells in duplicate rows of a 96-well plate to a serial dilution of test compound. The concentration series usually started at 10 μM with a three-fold serial decrement in concentration. The magnitude of the capsaicin response was determined by measuring the change in fluo3 fluorescence before and 100 seconds after the addition of the agonist. Data were analyzed using a non-linear regression program (Origin; OriginLab, MA).
This assay was performed similarly to the human assay described above, but using HEK293 cells transfected with rat TRPV1 (rTRPV1/HEK293).
(§2) IC50 values shown are the average (mean) of the results obtained. […] Compounds were tested as in the free base, trifluoroacetic acid salt, or hydrochloride salt form.

The target in another test is T2, human TRPV1 (Homo sapiens, UniProt Q8NER1).
T2 construct: expressed in transfected cells; host or cells: HEK293
In words: Block of capsaicin-induced Ca2+ influx, human assay (hTRPV1/HEK293, FLIPR). It counts as cell-based. To be noted: HEK293 cells transfected with human TRPV1; 150 nM capsaicin challenge; mean; > value = solubility limit in assay medium. The method, then: as §1, §2

T2 sequence (Q8NER1 whole entry): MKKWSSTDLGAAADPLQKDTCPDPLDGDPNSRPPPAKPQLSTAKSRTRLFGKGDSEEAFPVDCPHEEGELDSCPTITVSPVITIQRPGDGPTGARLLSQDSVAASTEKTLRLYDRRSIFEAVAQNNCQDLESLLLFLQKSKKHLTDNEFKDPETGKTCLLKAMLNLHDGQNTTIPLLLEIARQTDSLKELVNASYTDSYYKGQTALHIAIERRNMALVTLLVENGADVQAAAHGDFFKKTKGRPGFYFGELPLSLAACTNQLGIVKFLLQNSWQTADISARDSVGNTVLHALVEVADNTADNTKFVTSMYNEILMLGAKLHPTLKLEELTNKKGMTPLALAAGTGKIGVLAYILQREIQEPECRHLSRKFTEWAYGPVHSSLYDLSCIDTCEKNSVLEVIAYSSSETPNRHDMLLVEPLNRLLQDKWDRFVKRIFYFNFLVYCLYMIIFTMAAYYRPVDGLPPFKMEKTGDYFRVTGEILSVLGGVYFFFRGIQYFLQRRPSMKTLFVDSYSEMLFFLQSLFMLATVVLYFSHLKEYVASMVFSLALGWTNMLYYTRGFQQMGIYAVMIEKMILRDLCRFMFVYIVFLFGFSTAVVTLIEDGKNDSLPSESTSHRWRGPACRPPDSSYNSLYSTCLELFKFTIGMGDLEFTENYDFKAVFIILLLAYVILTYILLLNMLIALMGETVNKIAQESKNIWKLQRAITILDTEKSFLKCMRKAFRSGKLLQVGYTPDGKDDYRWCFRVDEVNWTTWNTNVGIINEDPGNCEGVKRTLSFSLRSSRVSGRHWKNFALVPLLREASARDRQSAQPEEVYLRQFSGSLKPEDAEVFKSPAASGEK
T1 sequence (O35433 whole entry): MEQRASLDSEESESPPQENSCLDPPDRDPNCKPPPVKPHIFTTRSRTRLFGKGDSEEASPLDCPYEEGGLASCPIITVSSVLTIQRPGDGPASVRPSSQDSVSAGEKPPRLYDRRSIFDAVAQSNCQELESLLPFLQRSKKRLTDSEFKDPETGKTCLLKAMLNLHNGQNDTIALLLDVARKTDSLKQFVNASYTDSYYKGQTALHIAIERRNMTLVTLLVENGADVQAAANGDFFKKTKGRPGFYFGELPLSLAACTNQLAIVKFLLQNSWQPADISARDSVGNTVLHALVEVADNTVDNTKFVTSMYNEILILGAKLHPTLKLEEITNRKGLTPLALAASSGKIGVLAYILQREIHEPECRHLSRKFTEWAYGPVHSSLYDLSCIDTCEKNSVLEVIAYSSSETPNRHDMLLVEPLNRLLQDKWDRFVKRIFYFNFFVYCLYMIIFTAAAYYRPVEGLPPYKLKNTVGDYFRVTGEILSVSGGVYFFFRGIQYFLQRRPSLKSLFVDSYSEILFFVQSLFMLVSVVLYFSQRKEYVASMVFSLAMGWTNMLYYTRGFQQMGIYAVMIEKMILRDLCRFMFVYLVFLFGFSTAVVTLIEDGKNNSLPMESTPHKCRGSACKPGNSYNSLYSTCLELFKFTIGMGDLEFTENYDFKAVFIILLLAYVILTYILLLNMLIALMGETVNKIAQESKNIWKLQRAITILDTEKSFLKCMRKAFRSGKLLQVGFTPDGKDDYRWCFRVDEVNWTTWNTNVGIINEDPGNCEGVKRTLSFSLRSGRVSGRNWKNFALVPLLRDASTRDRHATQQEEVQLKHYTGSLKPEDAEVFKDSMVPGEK

Broadly, the IC50 is the concentration at which inhibition is half-maximal. For `FC(F)(F)c1ccc(Nc2ncnc3oc(Cc4c(Cl)cccc4Cl)nc23)cc1` [Example 1, [2-(2,6-Dichloro-benzyl)-oxazolo[5,4-d]pyrimidin-7-yl]-(4-trifluoromethyl-phenyl)-amine], the half-maximal inhibitory concentration (IC50) is 58 nM on rat TRPV1 and 136 nM against human TRPV1.

Regarding `CC(C)(C)c1ccc(Nc2ncnc3oc(Cc4c(Cl)cccc4Cl)nc23)cc1` [Example 2, (4-tert-Butyl-phenyl)-[2-(2,6-dichloro-benzyl)-oxazolo[5,4-d]pyrimidin-7-yl]-amine], the concentration for half-maximal inhibition (IC50) at rat TRPV1 was determined as 30 nM; on human TRPV1, 75 nM.

In the case of `FC(F)(F)c1ccc(Nc2ncnc3sc(Cc4c(Cl)cccc4Cl)nc23)cc1` [Example 3, [2-(2,6-Dichloro-benzyl)-thiazolo[5,4-d]pyrimidin-7-yl]-(4-trifluoromethyl-phenyl)-amine], the concentration for half-maximal inhibition (IC50) is 30 nM on rat TRPV1 and 48 nM at human TRPV1.

`FC(F)(F)c1ccc(Nc2ncnc3sc(Cc4ccccc4I)nc23)cc1` [Example 4, [2-(2-Iodo-benzyl)-thiazolo[5,4-d]pyrimidin-7-yl]-(4-trifluoromethyl-phenyl)-amine]: the figures for the IC50 at rat TRPV1 and on human TRPV1 were 8 nM and 22 nM, respectively.

For the compound `CSc1nc(Nc2ccc(C(F)(F)F)cc2)c2nc(Cc3c(Cl)cccc3Cl)sc2n1` [Example 5, [2-(2,6-Dichloro-benzyl)-5-methylsulfanyl-thiazolo[5,4-d]pyrimidin-7-yl]-(4-trifluoromethyl-phenyl)-amine], the half-inhibitory concentration (IC50) on rat TRPV1 was above 6670 nM.

As for `Cc1nc(Nc2ccc(C(F)(F)F)cc2)c2nc(Cc3c(Cl)cccc3Cl)sc2n1` [Example 6, [2-(2,6-Dichloro-benzyl)-5-methyl-thiazolo[5,4-d]pyrimidin-7-yl]-(4-trifluoromethyl-phenyl)-amine], the IC50 on rat TRPV1 was 15 nM; on human TRPV1, 23 nM.

In the case of `COC(=O)C(C)(C)c1ccc(Nc2ncnc3sc(Cc4c(Cl)cccc4Cl)nc23)cc1` [Example 26, Methyl 2-(4-{[2-(2,6-dichlorobenzyl)[1,3]thiazolo[5,4-d]pyrimidin-7-yl]amino}phenyl)-2-methylpropanoate], the half-maximal inhibitory concentration (IC50) at rat TRPV1 was determined as 74 nM.

Take `FC(F)(F)c1ccc(Nc2ncnc3sc(Cc4ccc(Cl)cc4Cl)nc23)cc1` [Example 27, 2-(2,4-Dichlorobenzyl)-N-[4-(trifluoromethyl)phenyl][1,3]thiazolo[5,4-d]pyrimidin-7-amine]: at rat TRPV1, the IC50 came to 43 nM.

For the compound `O=S(=O)(c1ccc(Nc2ncnc3sc(Cc4c(Cl)cccc4Cl)nc23)cc1)N1CCNCC1` [Example 28, 2-(2,6-Dichlorobenzyl)-N-[4-(piperazin-1-ylsulfonyl)phenyl][1,3]thiazolo[5,4-d]pyrimidin-7-amine], at rat TRPV1, the IC50 was above 2220 nM.

`FC(F)(F)c1ccc(Nc2ncnc3sc(Cc4ccc(Cl)cc4Cl)nc23)cn1` [Example 29, 2-(2,4-Dichlorobenzyl)-N-[6-(trifluoromethyl)pyridin-3-yl][1,3]thiazolo[5,4-d]pyrimidin-7-amine]: at rat TRPV1, the IC50 is 600 nM.

Turning to `FC(F)(F)c1ccc(Nc2ncnc3sc(Cc4ccccc4C(F)(F)F)nc23)cc1` [Example 30, 2-[2-(Trifluoromethyl)benzyl]-N-[4-(trifluoromethyl)phenyl][1,3]thiazolo[5,4-d]pyrimidin-7-amine], the concentration for half-maximal inhibition (IC50) at rat TRPV1 is 4 nM.

As for `FC(F)(F)c1ccc(Nc2ncnc3sc(Cc4ccccc4C(F)(F)F)nc23)cn1` [Example 31, 2-[2-(Trifluoromethyl)benzyl]-N-[6-(trifluoromethyl)pyridin-3-yl][1,3]thiazolo[5,4-d]pyrimidin-7-amine], at rat TRPV1, the IC50 turned out to be 13 nM.

Turning to `CSc1ccc(Nc2ncnc3sc(Cc4c(Cl)cccc4Cl)nc23)cn1` [Example 38, 2-(2,6-Dichlorobenzyl)-N-[6-(methylsulfanyl)pyridin-3-yl][1,3]thiazolo[5,4-d]pyrimidin-7-amine], the IC50 at rat TRPV1 was 99 nM.

Turning to `CC(CO)Nc1nc(Nc2ccc(C(F)(F)F)cc2)c2nc(Cc3c(Cl)cccc3Cl)sc2n1` (centres unmarked) [Example 70, 2-[2-(2,6-Dichloro-benzyl)-7-(4-trifluoromethyl-phenylamino)-thiazolo[5,4-d]pyrimidin-5-ylamino]-propan-1-ol], at rat TRPV1, the IC50 is 1020 nM.

As to `COC[C@@H]1CCCN1c1nc(Nc2ccc(C(F)(F)F)cc2)c2nc(Cc3c(Cl)cccc3Cl)sc2n1` [Example 71, (S)-[2-(2,6-Dichloro-benzyl)-5-(2-methoxymethyl-pyrrolidin-1-yl)-thiazolo[5,4-d]pyrimidin-7-yl]-(4-trifluoromethyl-phenyl)-amine], the half-inhibitory concentration (IC50) on rat TRPV1 stood at 2450 nM.

With `CC(C)Nc1nc(Nc2ccc(C(F)(F)F)cc2)c2nc(Cc3c(Cl)cccc3Cl)sc2n1` [Example 72, 2-(2,6-Dichloro-benzyl)-N^5-isopropyl-N^7-(4-trifluoromethyl-phenyl)-thiazolo[5,4-d]pyrimidine-5,7-diamine], the IC50 at rat TRPV1 stood at 72 nM.

In the case of `FC(F)(F)c1ccc(Nc2nc(N3CCC3)nc3sc(Cc4c(Cl)cccc4Cl)nc23)cc1` [Example 73, [5-Azetidin-1-yl-2-(2,6-dichloro-benzyl)-thiazolo[5,4-d]pyrimidin-7-yl]-(4-trifluoromethyl-phenyl)-amine], at rat TRPV1, the IC50 worked out at 63 nM.

For the compound `FC(F)(F)c1ccc(Nc2nc(N3CCNCC3)nc3sc(Cc4c(Cl)cccc4Cl)nc23)cc1` [Example 74, [2-(2,6-Dichloro-benzyl)-5-piperazin-1-yl-thiazolo[5,4-d]pyrimidin-7-yl]-(4-trifluoromethyl-phenyl)-amine trifluoroacetic acid salt], the IC50 on rat TRPV1 was above 6670 nM.

For the compound `CC(C)N1CCN(c2nc(Nc3ccc(C(F)(F)F)cc3)c3nc(Cc4c(Cl)cccc4Cl)sc3n2)CC1` [Example 75, [2-(2,6-Dichloro-benzyl)-5-(4-isopropyl-piperazin-1-yl)-thiazolo[5,4-d]pyrimidin-7-yl]-(4-trifluoromethyl-phenyl)-amine trifluoroacetic acid salt], the 50% inhibitory concentration (IC50) at rat TRPV1 is 132 nM.

As for `FC(F)(F)c1ccc(Nc2nc(N3CCCCC3)nc3sc(Cc4c(Cl)cccc4Cl)nc23)cc1` [Example 81, [2-(2,6-Dichloro-benzyl)-5-piperidin-1-yl-thiazolo[5,4-d]pyrimidin-7-yl]-(4-trifluoromethyl-phenyl)-amine], the IC50 at rat TRPV1 stood at 14 nM.

In the case of `FC(F)(F)c1ccc(Nc2nc(NCCN3CCCC3)nc3sc(Cc4c(Cl)cccc4Cl)nc23)cc1` [Example 82, 2-(2,6-Dichloro-benzyl)-N^5-(2-pyrrolidin-1-yl-ethyl)-N^7-(4-trifluoromethyl-phenyl)-thiazolo[5,4-d]pyrimidine-5,7-diamine trifluoroacetic acid salt], at rat TRPV1, the concentration for half-maximal inhibition (IC50) was found to be 959 nM.

`FC(F)(F)c1nnc(Nc2ncnc3sc(Cc4c(Cl)cccc4Cl)nc23)s1` [Example 98, 2-(2,6-Dichlorobenzyl)-N-[5-(trifluoromethyl)-1,3,4-thiadiazol-2-yl][1,3]thiazolo[5,4-d]pyrimidin-7-amine]: the 50% inhibitory concentration (IC50) at rat TRPV1 stood at 1050 nM.

With `CC(C)(C)c1nnc(Nc2ncnc3sc(Cc4c(Cl)cccc4Cl)nc23)s1` [Example 99, N-(5-tert-Butyl-1,3,4-thiadiazol-2-yl)-2-(2,6-dichlorobenzyl)[1,3]thiazolo[5,4-d]pyrimidin-7-amine], the half-maximal inhibitory concentration (IC50) at rat TRPV1 came out at 195 nM.

For the compound `CC(C)COc1nc(Nc2ccc(C(F)(F)F)cc2)c2nc(Cc3c(Cl)cccc3Cl)sc2n1` [Example 103, [2-(2,6-Dichloro-benzyl)-5-isobutoxy-thiazolo[5,4-d]pyrimidin-7-yl]-(4-trifluoromethyl-phenyl)-amine], the concentration for half-maximal inhibition (IC50) at rat TRPV1 turned out to be 16 nM.
